Data: patent US8829185B2 (Bayer HealthCare LLC, priority 2005, dated 2014)

Target: T1, FGFR1-GST (Homo sapiens, UniProt P11362)
T1 construct: GST; made in house
Test: FGFR-1 TR-FRET biochemical assay
Procedure: FGFR-1 TR-FRET Biochemical Assay
The FGFR-1 Assay was performed on half well 96-well opaque plates (Costar 3915) in a LANCE format. LANCE is a homogenous time resolved fluormetry based application available through Perkin Elmer. For this assay, 50 uL reactions were set up using: 0.6 uM ATP (Sigma), 25 nM poly GT-biotin (CIS BIO International), 2 nM Eu-labelled phospho-Tyr Ab (PY20 PerkinElmer), 10 nM Streptavidin-APC (Perkin Elmer), 5 nM FGFR1-GST (generated by DRT, Bayer Healthcare), 1% DMSO, 50 mM HEPES pH 7.5, 10 mM MgCl2, 0.1 mM EDTA, 0.015% Brij, 0.1 mg/ml BSA, 0.1% B-mercaptoethanol. All reactions were initiated with the addition of enzyme and were left to incubate for one hour at room temperature. Time-resolved fluorescence was then read on a Perkin Elmer VictorV Multilabel counter. The reading protocol uses an excitation wavelength at 340 nm and emission reads at both 615 and 665 nm. Signal was calculated as a ratio: (Fluorescence at 665 nm/Fluorescence at […])*10000 for each well. The background control used for this assay is the signal produced with all assay components excluding ATP. For IC50 generation, compounds were added prior to the enzyme initiation. A 50-fold stock plate was made with compounds serially diluted 1:5 in a 50% DMSO/50% dH2O solution. A 1 μL addition of the stock to the assay wells gave final compound concentrations ranging from 10 μM −0.128 nM in 1% DMSO. The data were expressed as percent inhibition: % inhibition=100−((Signal with inhibitor-background)/(Signal without inhibitor−background))*100.

T1 sequence (P11362 22-822): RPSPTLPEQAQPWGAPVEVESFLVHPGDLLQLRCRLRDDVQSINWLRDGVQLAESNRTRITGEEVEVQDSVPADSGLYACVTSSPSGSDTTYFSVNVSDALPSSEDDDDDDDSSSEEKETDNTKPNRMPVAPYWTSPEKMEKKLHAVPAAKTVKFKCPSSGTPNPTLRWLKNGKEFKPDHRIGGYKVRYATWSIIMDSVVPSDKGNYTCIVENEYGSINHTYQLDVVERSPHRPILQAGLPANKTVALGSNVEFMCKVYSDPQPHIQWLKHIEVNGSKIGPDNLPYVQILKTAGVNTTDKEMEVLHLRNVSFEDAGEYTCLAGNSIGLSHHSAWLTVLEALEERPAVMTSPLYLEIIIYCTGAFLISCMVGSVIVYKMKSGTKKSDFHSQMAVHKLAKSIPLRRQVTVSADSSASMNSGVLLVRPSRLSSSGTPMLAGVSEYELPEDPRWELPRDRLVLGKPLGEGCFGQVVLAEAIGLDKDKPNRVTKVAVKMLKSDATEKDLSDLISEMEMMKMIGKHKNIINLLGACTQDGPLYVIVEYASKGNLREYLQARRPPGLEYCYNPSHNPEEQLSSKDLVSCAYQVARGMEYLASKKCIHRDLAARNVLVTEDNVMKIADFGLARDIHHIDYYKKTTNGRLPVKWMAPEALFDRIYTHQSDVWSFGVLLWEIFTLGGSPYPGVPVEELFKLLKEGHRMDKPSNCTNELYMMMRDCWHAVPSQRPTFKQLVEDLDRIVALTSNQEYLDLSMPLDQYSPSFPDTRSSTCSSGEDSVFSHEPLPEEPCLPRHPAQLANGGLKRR

| IC50 (bounds given in nM) | IC50 (upper bound in μM) | Structure (SMILES) |
| --- | --- | --- |
| 10 to 100 nM | – | Nc1ncnn2c(CN3CCOCC3)c(Cl)c(-c3ccc(NC(=O)Nc4cc(C(F)(F)F)ccc4Cl)c(F)c3)c12 [Example 159, N-{4-[4-amino-6-chloro-7-(morpholin-4-ylmethyl)pyrrolo[2,1-f][1,2,4]triazin-5-yl]-2-fluorophenyl}-N′-[2-chloro-5-(trifluoromethyl)-phenyl]urea] |
| < 10 nM | – | N#CCc1c(-c2ccc(NC(=O)Nc3cc(C(F)(F)F)ccc3F)cc2)c2c(N)ncnn2c1CN1CCNC(=O)C1 [Example 70, N-(4-{4-amino-6-(cyanomethyl)-7-[(3-oxopiperazin-1-yl)methyl]pyrrolo[2,1-f][1,2,4]triazin-5-yl}phenyl)-N′-[2-fluoro-5-(trifluoromethyl)phenyl]urea] |
| 10 to 100 nM | – | COCc1c(-c2ccc(NC(=O)Nc3cc(C(F)(F)F)ccc3F)c(F)c2)c2c(N)ncnn2c1CN1CCOC(CO)C1 (stereo not shown) [Example 47, N-{4-[4-amino-7-{[2-(hydroxymethyl)morpholin-4-yl]methyl}-6-(methoxymethyl)pyrrolo[2,1-f][1,2,4]triazin-5-yl]-2-fluorophenyl}-N′-[2-fluoro-5-(trifluoromethyl)-phenyl]urea] |
| < 10 nM | – | COCc1c(-c2ccc(NC(=O)Nc3cc(C(F)(F)F)ccc3F)c(F)c2)c2c(N)ncnn2c1CN1CCNC(=O)C1 [Example 44, N-(4-{4-amino-6-(methoxymethyl)-7-[(3-oxopiperazin-1-yl)methyl]pyrrolo[2,1-f][1,2,4]triazin-5-yl}-2-fluorophenyl)-N′-[2-fluoro-5-(trifluoromethyl)phenyl]urea] |
| 10 to 100 nM | – | Nc1ncnn2c(CN3CCOCC3)c(Cl)c(-c3ccc(NC(=O)Nc4cc(C(F)(F)F)ccc4F)c(F)c3)c12 [Example 152, N-{4-[4-amino-6-chloro-7-(morpholin-4-ylmethyl)pyrrolo[2,1-f][1,2,4]triazin-5-yl]-2-fluorophenyl}-N′-[2-fluoro-5-(trifluoromethyl)-phenyl]urea] |
| < 10 nM | – | N#CCc1c(-c2ccc(NC(=O)Nc3cc(C(F)(F)F)ccc3Cl)c(F)c2)c2c(N)ncnn2c1CN1CCS(=O)(=O)CC1 [Example 83, N-(4-{4-amino-6-(cyanomethyl)-7-[(1,1-dioxidothiomorpholin-4-yl)methyl]pyrrolo[2,1-f][1,2,4]triazin-5-yl}-2-fluorophenyl)-N′-[2-chloro-5-(trifluoromethyl)phenyl]urea] |
| 10 to 100 nM | – | COCc1c(-c2ccc(NC(=O)Nc3cc(C(F)(F)F)ccc3Cl)c(F)c2)c2c(N)ncnn2c1CN1CCOCC1 [Example 142, N-{4-[4-amino-6-(methoxymethyl)-7-(morpholin-4-ylmethyl)-pyrrolo[2,1-f][1,2,4]triazin-5-yl]-2-fluorophenyl}-N′-[2-chloro-5-(trifluoromethyl)phenyl]urea] |
| < 10 nM | – | N#CCc1c(-c2ccc(NC(=O)Nc3cc(C(F)(F)F)ccc3F)cc2)c2c(N)ncnn2c1CN1CCOCC1 [Example 68, N-{4-[4-amino-6-(cyanomethyl)-7-(morpholin-4-ylmethyl)-pyrrolo[2,1-f][1,2,4]triazin-5-yl]phenyl}-N′-[2-fluoro-5-(trifluoromethyl)-phenyl]urea] |

Continued, compound first:

| Structure (SMILES) | IC50 (bounds given in nM) | IC50 (upper bound in μM) |
| --- | --- | --- |
| CS(=O)(=O)N1CCN(Cc2c(CC#N)c(-c3ccc(NC(=O)Nc4cc(C(F)(F)F)ccn4)cc3)c3c(N)ncnn23)CC1 [Example 67, N-[4-(4-amino-6-(cyanomethyl)-7-{[4-(methylsulfonyl)piperazin-1-yl]methyl}pyrrolo[2,1-f][1,2,4]triazin-5-yl)phenyl]-N′-[4-(trifluoromethyl)pyridin-2-yl]urea] | 10 to 100 nM | – |
| COCCN(C)Cc1c(-c2ccc(NC(=O)Nc3cc(C(F)(F)F)ccc3F)cc2)c2c(N)ncnn2c1CN1CCOCC1 [Example 110, N-4-[4-amino-6-[(2-methoxyethyl)(methyl)-amino]methyl-7-(morpholin-4-ylmethyl)pyrrolo[2,1-f][1,2,4]triazin-5-yl]phenyl-N′-[2-fluoro-5-(trifluoromethyl)phenyl]urea] | > 100 nM | < 1000 nM |
| CCc1c(-c2ccc(NC(=O)Nc3cc(C(F)(F)F)ccn3)cc2)c2c(N)ncnn2c1CN1CCOCC1 [Example 148, N-{4-[4-amino-6-ethyl-7-(morpholin-4-ylmethyl)pyrrolo[2,1-f][1,2,4]triazin-5-yl]phenyl}-N′-[4-(trifluoromethyl)pyridin-2-yl]urea] | 10 to 100 nM | – |
| CNCc1c(-c2ccc(NC(=O)Nc3cc(C(F)(F)F)ccc3F)cc2)c2c(N)ncnn2c1CN1CCOCC1 [Example 109, N-4-[4-amino-6-[(methylamino)methyl]-7-(morpholin-4-ylmethyl)pyrrolo[2,1-f][1,2,4]triazin-5-yl]phenyl-N′-[2-fluoro-5-(trifluoromethyl)phenyl]urea] | 10 to 100 nM | – |
| CCOC(=O)c1c(-c2ccc(NC(=O)Nc3cc(C(F)(F)F)ccn3)cc2)c2c(N)ncnn2c1C#N [Example 6, ethyl 4-amino-7-cyano-5-{4-[({[4-(trifluoromethyl)pyridin-2-yl]amino}carbonyl)amino]phenyl}pyrrolo[2,1-f][1,2,4]triazine-6-carboxylate] | > 100 nM | < 1000 nM |
| COCc1c(-c2ccc(NC(=O)Nc3cc(C(F)(F)F)ccc3F)cc2)c2c(N)ncnn2c1CN1CCN(C(C)=O)CC1 [Example 21, N-{4-[7-[(4-acetylpiperazin-1-yl)methyl]-4-amino-6-(methoxymethyl)pyrrolo[2,1-f][1,2,4]triazin-5-yl]phenyl}-N′-[2-fluoro-5-(trifluoromethyl)phenyl]urea] | 10 to 100 nM | – |
| CC(=O)c1c(-c2ccc(NC(=O)Nc3ccc(OC(F)(F)F)cc3)c(F)c2)c2c(N)ncnn2c1CN1CCOCC1 [Example 59, N-4-[6-acetyl-4-amino-7-(morpholin-4-ylmethyl)pyrrolo[2,1-f][1,2,4]triazin-5-yl]-2-fluorophenyl-N′-[4-(trifluoromethoxy)phenyl]urea] | 10 to 100 nM | – |
| CC(=O)N1CCN(Cc2c(-c3cnco3)c(-c3ccc(NC(=O)Nc4cc(C(F)(F)F)ccc4F)cc3)c3c(N)ncnn23)CC1 [Example 32, N-4-[7-[(4-acetylpiperazin-1-yl)methyl]-4-amino-6-(1,3-oxazol-5-yl)pyrrolo[2,1-f][1,2,4]triazin-5-yl]phenyl-N′-[2-fluoro-5-(trifluoromethyl)phenyl]urea] | < 10 nM | – |
| COCc1c(-c2ccc(NC(=O)Nc3cc(C(F)(F)F)ccn3)c(C)c2)c2c(N)ncnn2c1CN1CCOCC1 [Example 145, N-4-[4-amino-6-(methoxymethyl)-7-(morpholin-4-ylmethyl)pyrrolo[2,1-f][1,2,4]triazin-5-yl]-2-methylphenyl-N′-[4-(trifluoromethyl)pyridin-2-yl]urea] | < 10 nM | – |
| COCc1c(-c2ccc(NC(=O)Nc3cc(C)ccc3F)c(F)c2)c2c(N)ncnn2c1CN1CCCOCC1 [Example 140, N-{4-[4-amino-6-(methoxymethyl)-7-(1,4-oxazepan-4-ylmethyl)-pyrrolo[2,1-f][1,2,4]triazin-5-yl]-2-fluorophenyl}-N′-(2-fluoro-5-methylphenyl)urea] | 10 to 100 nM | – |
| N#CCc1c(-c2ccc(NC(=O)Nc3cc(C(F)(F)F)ccn3)cc2)c2c(N)ncnn2c1CN1CCOCC1 [Example 63, N-{4-[4-amino-6-(cyanomethyl)-7-(morpholin-4-ylmethyl)-pyrrolo[2,1-f][1,2,4]triazin-5-yl]phenyl}-N′-[4-(trifluoromethyl)-pyridin-2-yl]urea] | < 10 nM | – |
| Nc1ncnn2c(CN3CCOCC3)c(Cl)c(-c3cc(F)c(NC(=O)Nc4cc(C(F)(F)F)ccc4F)cc3F)c12 [Example 156, N-{4-[4-amino-6-chloro-7-(morpholin-4-ylmethyl)pyrrolo[2,1-f][1,2,4]triazin-5-yl]-2,5-difluorophenyl}-N′-[2-fluoro-5-(trifluoromethyl)-phenyl]urea] | > 100 nM | < 1000 nM |
| Nc1ncnn2c(CN3CCOCC3)c(C(O)C3CC3)c(-c3ccc(NC(=O)Nc4cc(C(F)(F)F)ccc4F)cc3)c12 (stereo not shown) [Example 106, N-4-[4-amino-6-[cyclopropyl(hydroxy)methyl]-7-(morpholin-4-ylmethyl)pyrrolo[2,1-f][1,2,4]triazin-5-yl]phenyl-N′-[2-fluoro-5-(trifluoromethyl)phenyl]urea] | 10 to 100 nM | – |
| COCc1c(-c2ccc(NC(=O)Nc3cc(C(F)(F)F)ccn3)cc2)c2c(N)ncnn2c1CN1CCN(C(C)=O)CC1 [Example 37, N-4-[7-[(4-acetylpiperazin-1-yl)methyl]-4-amino-6-(methoxy-methyl)pyrrolo[2,1-f][1,2,4]triazin-5-yl]phenyl-N′-[4-(trifluoromethyl)pyridin-2-yl]urea] | 10 to 100 nM | – |
| Nc1ncnn2c(CN3CCOCC3)c(Cl)c(-c3ccc(NC(=O)Nc4cc(C(F)(F)F)ccn4)c(F)c3)c12 [Example 158, N-{4-[4-amino-6-chloro-7-(morpholin-4-ylmethyl)pyrrolo[2,1-f][1,2,4]triazin-5-yl]-2-fluorophenyl}-N′-[4-(trifluoromethyl)pyridin-2-yl]urea] | < 10 nM | – |
| COCc1c(-c2ccc(NC(=O)Nc3cc(C(F)(F)F)ccc3F)cc2)c2c(N)ncnn2c1C#N [Example 11, N-4-[4-amino-7-cyano-6-(methoxy-methyl)pyrrolo[2,1-f][1,2,4]triazin-5-yl]phenyl-N′-[2-fluoro-5-(trifluoromethyl)-phenyl]urea] | > 100 nM | < 1000 nM |
